According to patent publication US4310660A, “Lincomycin compounds” (The Upjohn Company, priority 1980, dated 1982):
Structures can show the parent of a compound that is named as a salt. Where two headings read alike, the source gives them in different places.

Experiments:
Staphylococcus aureus = test: MIC vs. aerobic bacteria, microplate broth-dilution (BHI); type: cell-based; details: Staphylococcus aureus, read-out: Minimal Inhibitory Concentration (MIC)
Diplococcus pneumoniae = test: as above; type: cell-based; details: Streptococcus pneumoniae, read-out: Minimal Inhibitory Concentration (MIC)
Procedure: (§1) The Minimal Inhibitory Concentration (MIC's) of both compounds Vs. aerobic bacteria is determined using a standard microplate broth-dilution method. Brain Heart Infusion (BHI-Difco) broth medium is used, and the plates are incubated at 37° C. for 20 hrs.

Escherichia coli = test: as above; type: cell-based; details: UC45, UC 45, read-out: Minimal Inhibitory Concentration (MIC)
Procedure: as §1

Klebsiella pneumoniae = test: as above; type: cell-based; details: Klebsiella pneumoniae, UC58, UC 58; read-out: Minimal Inhibitory Concentration (MIC)
Procedure: as §1

Proteus vulgaris = test: as above; type: cell-based; details: Proteus vulgaris, UC93, UC 93; read-out: Minimal Inhibitory Concentration (MIC)
Procedure: as §1

Pseudomonas aeruginosa = test: as above; type: cell-based; details: UC95, UC 95, read-out: Minimal Inhibitory Concentration (MIC)
Procedure: as §1

[1] = tested on: Salmonella schottmuelleri; test: as above; type: cell-based; details: Salmonella, UC126; UC 126; read-out: Minimal Inhibitory Concentration (MIC)
Procedure: as §1

[2] = tested on: Staphylococcus epidermidis; test: as above; type: cell-based
Procedure: as §1

Streptococcus faecalis = test: as above; type: cell-based; details: Enterococcus faecalis, UC694, UC 694; read-out: Minimal Inhibitory Concentration (MIC)
Procedure: as §1

Streptococcus pyogenes = test: as above; type: cell-based; details: UC152, UC 152, read-out: Minimal Inhibitory Concentration (MIC)
Procedure: as §1

Streptococcus viridans = test: as above; type: cell-based
Procedure: as §1

Bacteroides fragilis = test: MIC vs. anaerobic bacteria, agar dilution; type: cell-based
Bacteroides distasonis = test: MIC vs. anaerobic bacteria, agar dilution; type: cell-based; details: Parabacteroides distasonis, UC6518, UC 6518, read-out: Minimal Inhibitory Concentration (MIC)
Clostridium tertium = test: MIC vs. anaerobic bacteria, agar dilution; type: cell-based; details: UC6508, UC 6508, read-out: Minimal Inhibitory Concentration (MIC)
Clostridium bifermentans = test: MIC vs. anaerobic bacteria, agar dilution; type: cell-based; details: Paraclostridium bifermentans, UC6507, UC 6507, read-out: Minimal Inhibitory Concentration (MIC)
Peptococcus magnus = test: MIC vs. anaerobic bacteria, agar dilution; type: cell-based; details: Finegoldia magna, UC6258, UC 6258, read-out: Minimal Inhibitory Concentration (MIC)
[3] = tested on: Peptostreptococcus anaerobius; test: MIC vs. anaerobic bacteria, agar dilution; type: cell-based; details: UC6321, UC 6321, read-out: Minimal Inhibitory Concentration (MIC)
[4] = Acute I.P. toxicity in the mouse (LD50); type: in vivo
Text: This value is the resulting mean of two separate and identical LD50 determinations.

Q: Which results are given for CC[C@@H]1CCN[C@H](C(=O)N[C@@H]([C@H]2O[C@H](SC)[C@H](O)[C@@H](O)[C@H]2O)[C@H](C)Cl)C1 [U-57,930E, 4-Cis-ethyl-1-pipecolic acid amide of 7-Cl-MTL.HCl]?
A: MIC (Staphylococcus aureus; UC76, S. aureus UC 76): 0.1 µg/mL; MIC (Staphylococcus aureus; UC570, S. aureus UC 570): 0.39 µg/mL; MIC (Staphylococcus aureus; UC571, S. aureus UC 571): 0.78 µg/mL; MIC (Staphylococcus aureus; UC746, S. aureus UC 746): 0.05 µg/mL; MIC (Staphylococcus aureus; UC6675, S. aureus UC 6675): 0.39 µg/mL; MIC (Staphylococcus aureus; UC6685, S. aureus UC 6685): > 25 µg/mL; MIC (Staphylococcus aureus; UC6686, S. aureus UC 6686): 0.2 µg/mL; MIC (Staphylococcus aureus; UC6687, S. aureus UC 6687): 0.2 µg/mL; MIC (Staphylococcus aureus; UC6688, S. aureus UC 6688): > 25 µg/mL; MIC (Staphylococcus aureus; UC6689, S. aureus UC 6689): 0.78 µg/mL; MIC (Staphylococcus aureus; UC6690, S. aureus UC 6690): 0.2 µg/mL; MIC (Staphylococcus aureus; UC6691, S. aureus UC 6691): 0.2 µg/mL; MIC (Staphylococcus aureus; UC6692, S. aureus UC 6692): > 25 µg/mL; MIC (Staphylococcus aureus; UC6693, S. aureus UC 6693): 0.78 µg/mL; MIC (Staphylococcus aureus; UC6694, S. aureus UC 6694): > 25 µg/mL; MIC (Staphylococcus aureus; UC6695, S. aureus UC 6695): 0.39 µg/mL; MIC (Staphylococcus aureus; UC6696, S. aureus UC 6696): 0.39 µg/mL; MIC (Diplococcus pneumoniae; UC41, Diplococcus pneumoniae I, UC 41): ≤ 0.012 µg/mL; MIC (Diplococcus pneumoniae; UC3213, Diplococcus pneumoniae II, UC 3213): ≤ 0.012 µg/mL; MIC (Escherichia coli): > 50 µg/mL; MIC (Klebsiella pneumoniae): > 50 µg/mL; MIC (Proteus vulgaris): > 50 µg/mL; MIC (Pseudomonas aeruginosa): > 50 µg/mL; MIC [1]: > 50 µg/mL; MIC ([2]; UC719, UC 719, read-out: Minimal Inhibitory Concentration (MIC)): 0.2 µg/mL; MIC ([2]; UC3389, UC 3389, read-out: Minimal Inhibitory Concentration (MIC)): 0.2 µg/mL; MIC (Streptococcus faecalis): 6.25 µg/mL; MIC (Streptococcus pyogenes): ≤ 0.012 µg/mL; MIC (Streptococcus viridans; UC153, UC 153, read-out: Minimal Inhibitory Concentration (MIC)): 0.05 µg/mL; MIC (Streptococcus viridans; UC871, UC 871, read-out: Minimal Inhibitory Concentration (MIC)): ≤ 0.012 µg/mL; MIC (Bacteroides fragilis; UC6428, UC 6428, read-out: Minimal Inhibitory Concentration (MIC)): 0.25 µg/mL; MIC (Bacteroides fragilis; UC6513, UC 6513, read-out: Minimal Inhibitory Concentration (MIC)): 0.12 µg/mL; MIC (Bacteroides fragilis; UC6862, UC 6862, read-out: Minimal Inhibitory Concentration (MIC)): 15.6 µg/mL; MIC (Bacteroides fragilis; UC6864, UC 6864, read-out: Minimal Inhibitory Concentration (MIC)): 2 µg/mL; MIC (Bacteroides distasonis): ≤ 0.03 µg/mL; MIC (Clostridium tertium): 7.8 µg/mL; MIC (Clostridium bifermentans): 0.06 µg/mL; MIC (Peptococcus magnus): 0.06 µg/mL; MIC [3]: 0.12 µg/mL; LD50 as multiple of the LD50 for clindamycin HCl [4]: approximately 2 times; acute I.P. toxicity relative to clindamycin HCl [4]: approximately one-half; LD50 ([4]; in vivo, ip, mean of two determinations): 592 mg/kg
